Results as given in patent US6632808B1 (priority 1998, dated 2003).

System: hamster 263K scrapie
Set-up: species or system transgenic mice over-expressing the hamster PrP-sen (Tg7)
Conditions: in vivo

Phthalocyanine tetrasulfonate [PcTS]
animals surviving a minimum of 200 days: 60% | increase of survival times, late treatment: one week | survival longer than untreated controls: approximately 120 days | survivors at >170 Dpi: 80%
